Values belong to the compound of their own block, whether it stands above or below them. Activity calls are given as the source filed them.
What was measured:
[1] = enhancers of respiration in Yfh1-depleted yeast, dose response, Friedreich's ataxia, plus single-dose screen (AID 1465); format: functional;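 also: yeast depleted of Yfh1p frataxin homolog grown on glycerol needing respiration; WST-1 tetrazolium dye reduction as measure of cellular dehydrogenase metabolic activity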
[2] = target: T1, Probable nicotinate-nucleotide adenylyltransferase (Staphylococcus aureus (strain N315), UniProt P65502); format: functional, Staphylococcus aureus subsp. aureus N315; settings: read-out: IC50_Mean;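 as to IC50 Mean: confirmatory dose-response retesting of NadD inhibitor hits first found in an ultra-high-throughput screen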
[3] = tested on: Vero; assay: Vero cell cytotoxicity, cytotoxicity control for flavivirus capping enzyme inhibitors (AID 588742); format: functional; settings: Chlorocebus sabaeus
[4] = target: T2, Aminopeptidase N (Plasmodium falciparum FcB1/Columbia, UniProt O96935); assay: P. falciparum M1AAP inhibitors, biochemical, fluorogenic H-Leu-NHMec substrate, 1536-well (AID 1445); set-up: species or system Plasmodium falciparum 3D7, 3D7
T2 sequence (O96935 whole entry): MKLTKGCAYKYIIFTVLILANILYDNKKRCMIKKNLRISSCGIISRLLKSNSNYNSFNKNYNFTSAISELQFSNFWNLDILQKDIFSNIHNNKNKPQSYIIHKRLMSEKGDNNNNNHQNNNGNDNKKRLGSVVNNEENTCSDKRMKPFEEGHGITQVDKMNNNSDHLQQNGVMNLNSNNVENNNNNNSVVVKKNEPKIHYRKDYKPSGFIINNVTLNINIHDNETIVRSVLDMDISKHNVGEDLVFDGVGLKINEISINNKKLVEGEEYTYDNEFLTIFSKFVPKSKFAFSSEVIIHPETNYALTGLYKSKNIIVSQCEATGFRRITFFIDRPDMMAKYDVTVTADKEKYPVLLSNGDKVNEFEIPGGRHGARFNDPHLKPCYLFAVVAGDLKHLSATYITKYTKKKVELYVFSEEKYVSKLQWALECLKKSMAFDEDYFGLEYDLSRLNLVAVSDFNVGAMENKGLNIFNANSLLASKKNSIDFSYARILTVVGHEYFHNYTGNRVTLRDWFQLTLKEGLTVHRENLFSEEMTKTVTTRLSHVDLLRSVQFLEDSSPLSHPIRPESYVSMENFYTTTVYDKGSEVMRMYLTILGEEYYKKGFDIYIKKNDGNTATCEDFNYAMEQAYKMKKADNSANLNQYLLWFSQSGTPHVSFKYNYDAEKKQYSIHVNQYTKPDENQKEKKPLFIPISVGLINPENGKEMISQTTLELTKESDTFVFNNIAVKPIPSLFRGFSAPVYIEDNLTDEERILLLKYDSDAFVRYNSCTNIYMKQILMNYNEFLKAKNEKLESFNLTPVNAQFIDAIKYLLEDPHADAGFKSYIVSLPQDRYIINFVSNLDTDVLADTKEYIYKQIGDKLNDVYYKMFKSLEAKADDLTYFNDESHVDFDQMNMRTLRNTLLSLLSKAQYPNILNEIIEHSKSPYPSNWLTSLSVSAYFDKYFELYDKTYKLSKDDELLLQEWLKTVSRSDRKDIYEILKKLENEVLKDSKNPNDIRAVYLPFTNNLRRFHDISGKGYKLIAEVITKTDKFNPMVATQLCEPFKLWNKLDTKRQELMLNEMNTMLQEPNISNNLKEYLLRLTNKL

[5] = target: T3, Neuropeptide Y receptor type 1 (Homo sapiens, UniProt P25929); assay: Fluorescence-based counterscreen for agonists of NPY-Y2: cell-based high-throughput dose response assay for agonists of NPY-Y1.; format: functional
[6] = target: T4, Neuropeptide Y receptor type 2 (Homo sapiens, UniProt P49146); assay: Fluorescence-based cell-based high-throughput dose response assay for agonists of NPY-Y2. [Related pubchem assays: 1703 (Screening assay (CNGC inhibitors).), 1359 (Screening assay (NPY-Y2 potentiators or agonists).), 1304 (Screening assay (NPY-Y1 potentiators or agonists).), 1710 (Screening assay (NPY-Y2 agonists).), 1791 (Summary AID.)]; format: functional
[7] = tested on: HEK293; assay: Fluorescence-based counterscreen for potentiators or agonists of NPY-Y2: cell-based high-throughput dose response assay to identify inhibitors of cyclic nucleotide gated ion channel (CNGC) activity. In this assay, the parental HEK293 cell line transfected with a cyclic-nucleotide gated ion channel (CNGC)-based cAMP sensor is used to measure inhibition of isoproterenol-induced CNGC activity by test compound.; format: functional; settings: Homo sapiens
[8] = target: T1, Probable nicotinate-nucleotide adenylyltransferase; format: functional, Staphylococcus aureus subsp. aureus N315
[9] = HIV-1 Env-mediated cell fusion inhibitors, dose response, CCR5-tropic Env (AID 2279); format: functional
[10] = target: Serine/threonine-protein phosphatase PP1-alpha catalytic subunit (Homo sapiens, UniProt P62136); assay: PP1 phosphatase inhibitors, dose response, biochemical, fluorescence (AID 2403);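 also: phosphatase turnover of OMFP into fluorescent 3-O-methylfluorescein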
[11] = target: Serine/threonine-protein phosphatase (Homo sapiens, UniProt Q9BPW0); assay: Counterscreen for inhibitors of PP1: fluorescence-based biochemical high throughput dose response assay to identify inhibitors of Protein Phosphatase 5 (PP5). [Related pubchem assays: 2034 (Summary (PP5 inhibitors)), 1987 (PP5 inhibitors in singlate), 2235 (PP1 inhibitors in singlate)]
[12] = target: 26S proteasome non-ATPase regulatory subunit 14 (Homo sapiens, UniProt O00487); assay: inhibition of proteasome subunit RPN11 – biochemical, fluorescence polarization, uHTS hits, confirmation (AID 602368); format: functional
[13] = target: T5, Small ubiquitin-related modifier 1 (Homo sapiens, UniProt P63165); assay: inhibitors of SUMO1 peptide binding, dose response, biochemical, fluorescence polarization, uHTS hits (AID 624382); format: functional; settings: read-out: IC50_Mean
[14] = target: 72 kDa type IV collagenase (Homo sapiens, UniProt P08253); assay: Dose Response validation of uHTS RPN11 inhibitor hits using a MMP-2 Fluorescence assay.; format: functional
[15] = target: T5, Small ubiquitin-related modifier 1; assay: inhibitors of SUMO1 partner interactions, dose response, biochemical, FRET (AID 624383); format: functional; settings: read-out: IC50_Mean
[16] = target: T6, Caspase-6 (Homo sapiens, UniProt P55212); assay: human caspase-6 inhibitors, dose response, biochemical, VEID-R110 fluorescence, cherry-pick (AID 720632)
T6 sequence (P55212 whole entry): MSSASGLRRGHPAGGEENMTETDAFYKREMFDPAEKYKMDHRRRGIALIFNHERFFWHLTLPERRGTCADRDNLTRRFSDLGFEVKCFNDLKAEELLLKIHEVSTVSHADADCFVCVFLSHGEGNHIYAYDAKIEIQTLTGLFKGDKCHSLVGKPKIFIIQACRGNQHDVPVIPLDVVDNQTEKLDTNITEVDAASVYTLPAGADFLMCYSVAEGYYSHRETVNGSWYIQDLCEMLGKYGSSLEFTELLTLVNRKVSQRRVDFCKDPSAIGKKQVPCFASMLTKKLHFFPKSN

[17] = target: cAMP-dependent protein kinase catalytic subunit alpha (Homo sapiens, UniProt P17612); assay: PKA catalytic subunit inhibitors, dose response, biochemical, Caliper mobility shift, dry powder samples (AID 504583)
[18] = cells; settings: A549
[19] = HepG2 cell cytotoxicity, dose response, cytotoxicity control, ATP luminescence, cherry-pick, set 6 (AID 1053125); format: functional, cell-based
[20] = target: Prothrombin (Bos taurus, UniProt P00735); assay: thrombin inhibition, dose response, biochemical, fluorescence polarization, uHTS hits (AID 602369); format: functional
[21] = target: Cytochrome P450 2D6 (Homo sapiens, UniProt P10635); assay: qHTS Assay for Inhibitors and Substrates of Cytochrome P450 2D6. [Related pubchem assays: 410 ]; format: ADME; settings: read-out: Potency
[22] = target: Acyl-homoserine lactone acylase PvdQ (Pseudomonas aeruginosa (strain LESB58), UniProt Q9I194); assay: P. aeruginosa PvdQ acylase inhibitors, dose response, biochemical, fluorescence, plate reader and imaging, cherry-picks (AID 493231)
[23] = target: T4, Neuropeptide Y receptor type 2; assay: Fluorescence-based counterscreen for agonists of NPY-Y1: cell-based high-throughput dose response assay for agonists of NPY-Y2.; format: functional
[24] = target: T3, Neuropeptide Y receptor type 1; assay: Fluorescence-based dose response cell-based high-throughput screening assay for agonists of NPY-Y1. [Related pubchem assays: 1697 (Screening assay (NPY-Y1 agonists).), 1359 (Screening assay (NPY-Y2 potentiators or agonists).), 1304 (Screening assay (NPY-Y1 potentiators or agonists).), 1704 (Screening assay (CNGC inhibitors).), 1791 (Summary AID.)]; format: functional
[25] = target: Neurotensin receptor type 1 (Homo sapiens, UniProt P30989); format: functional;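 also: Image-based confirmatory dose-response assay measuring agonist activity at NTR1; NTR1-expressing U2OS osteosarcoma cells imaged for beta-arrestin GFP spot formation; agonist potency where compounds increase beta-arrestin recruitment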
[26] = tested on: HEK293; assay: Fluorescence-based counterscreen for potentiators or agonists of NPY-Y1: cell-based high-throughput dose response assay for inhibitors of cyclic nucleotide gated ion channel (CNGC) activity. In this assay, the parental HEK293 cell line transfected with a cyclic-nucleotide gated ion channel (CNGC)-based cAMP sensor is used to measure inhibition of isoproterenol-induced CNGC …; format: functional; settings: Homo sapiens

Compound: S=C(NCc1ccc2c(c1)OCO2)Nc1ccc(-c2nc3ccccc3[nH]2)cc1
EC50 [1]: > 100 µM (active)

Compound: COc1ccccc1NS(=O)(=O)c1cccc(N2C(=O)/C(=C\Nc3ccccc3C(=O)O)c3ccccc3C2=O)c1
IC50 [2]: 22.2 µM (active)
CC50 [3]: > 40 µM (active)
IC50 [4]: 30.4 µM (active)
EC50 [5]: > 11.8 µM (not active)
EC50 [6]: 20.1 µM (not active)
EC50 [7]: 13.4 µM (not active)
IC50 [8]: 2.81 µM (active)
IC50 [9]: 19.6 µM (active)

Compound: CCOC(=O)c1cnc(-n2cc(C)cn2)nc1NCc1ccc2c(c1)OCO2
IC50 [10]: 5.96 µM (active)
IC50 [11]: > 67 µM (not active)

Compound: Nc1nc(-c2cc(O)ccc2[N+](=O)[O-])cc(-c2ccccc2)c1[N+](=O)[O-]
IC50 [12]: 23.9 µM (active)
IC50 [13]: > 66.6 µM (inactive)
IC50 [14]: > 100 µM (inactive)
IC50 [15]: 9.51 µM (active)
AC50 [16]: 10.7 µM (active)
AC50 [17]: 1.11 µM (active)
AC50 [18]: 42.5 µM (active)
AC50 [19]: > 52 µM (inactive)
IC50 [20]: 53 µM (active)

AC50 [21]: 3.16 µM (inconclusive)
Compound: COC(=O)NC(c1ccc(F)cc1)C(C(C)=O)C(=O)OC (stereo unspecified)

Compound: O=C1NN(c2ccccc2)C(=O)C2C1C1C=CC2C12CC2 (stereo unspecified)
AC50 [22]: 18.8 µM (active)

Compound: CC1CCC(C(C)C)C(OCC(O)CNC(C)c2ccccc2)C1 (stereo unspecified)
EC50 [23]: > 35.4 µM (not active)
EC50 [24]: > 35.4 µM (not active)
EC50 [25]: 21.5 µM (inactive)
IC50 [26]: > 35.4 µM (not active)
